From the pKa sets of Baltruschat and Czodrowski (2020)
Where a SMILES comes first, the peptide text is derived from it.

Conditions: acidic group

Row | SMILES | pKa
1 | Cn1c(=O)c2c([nH]c(=O)n2C)n(C)c1=O | 6
2 | Cn1nc(/N=N/O)nc1Cl | 5.17
3 | O=S(O)Cc1ccccc1 | 1.86
4 | CN(C)c1cccc2c(S(=O)(=O)NCC(=O)[O-])cccc12 | 11.7
5 | CCOC(=O)c1cc(C)[n+](O)c(C)c1 | -0.13
6 | O=C([O-])/C(=N/O)c1ccccc1 | 11.6
7 | COC(=O)c1cc(O)c(O)c(O)c1C[NH+](C)C | 6.8
8 | COC(=O)c1ccc(O)cc1 | 8.34
9 | [NH3+]C(CC(=O)O)c1cccc[nH+]1 (centres undefined) | 1.3
10 | O/C(=C\c1ccccc1)c1ccco1 | 8.5
11 | O=Nc1ccc(O)cc1 | 6.2
12 | O/N=C/c1ccnc2ccccc12 | 10.4
13 | CC(O)=C(C#N)C#N | 1
14 | C[C@]12CC[C@@H]3c4ccc(O)cc4CC[C@H]3[C@@H]1C[C@@H](O)[C@@H]2O | 10.8
15 | CC[Se](=O)O | 5.28
16 | C[Si](C)(C)CCC(=O)O | 4.91
17 | CCC1C(=O)C(CC)C1=O (centres undefined) | 3.5
18 | O/C(=C/[n+]1ccccc1)c1ccccc1 | 4.8
19 | O=C(O)[C@@H]1CC[C@@H](C(=O)O)S1 | 3.3
20 | O=C(O)C[NH+](CC(=O)O)Cc1cc([N+](=O)[O-])ccc1O | 2.4
21 | Cc1cc(OS(=O)(=O)[O-])c2oc(-c3cc4ccc(O)cc4oc3=O)nc2c1 | 6.8
22 | CC1C(=O)CC(C)(C)CC1=O | 5.6
23 | CCC1(C2=CCCCC2)C(=O)NC(=S)NC1=O | 7.12
24 | O=[N+]([O-])c1ccccc1/C=N/O | 10.1

Row | SMILES | pKa
25 | Cc1cc(Cc2cc([N+](=O)[O-])ccc2O)cc(C)c1O | 7.12
26 | O/N=C/NO | 10.7
27 | C/C(=C\c1cc(C(C)(C)C)c(O)c(C(C)(C)C)c1)C(=O)[O-] | 11.5
28 | COC(=O)c1ccccc1O | 10.3
29 | C=C(C)[C@@H]1C[NH2+][C@H](C(=O)O)[C@@H]1CC(=O)O | 2.09
30 | COc1cc2c(cc1O)[C@H]1Cc3cc(OC)c(OC)cc3[C@H](C2)N1C | 9.8
31 | Nc1ccc(S(=O)(=O)Nc2ccc(C(=O)O)cc2)cc1 | 4.02
32 | Nc1[nH]cc(O)[nH+]1 | 4.8
33 | CSC(C)C(=O)O (centres undefined) | 3.76
34 | C[NH+]1C[C@@H](C(=O)O)C[C@@]2(O)c3cccc4[nH]cc(c34)C[C@@H]12 | 3.38
35 | C[C@H]1CC[C@@H](C(=O)O)CC1 | 5.04
36 | CN(C)C(=O)OCC(=O)O | 3.01
37 | S=C(Nc1ccccc1)c1ccc(Cl)cc1 | 10.8
38 | O=C1CCCC(=O)N1O | 7.6
39 | CC(C)CC(N)C(=O)NC(CC(N)=O)C(=O)O (stereo not drawn) (H-Leu-Asn-OH; configuration not given here) | 8.23
40 | CN(C)c1ncnc2nc[nH]c12 | 10.5
41 | COc1cccc(-c2nnn[nH]2)c1 | 3.91
42 | CC(=O)N(c1ccccc1)c1nnc(S(N)(=O)=O)s1 | 7.32
43 | O=[N+]([O-])c1cccc(O)c1 | 8.31
44 | CC(=O)CC(=S)Nc1ccc(C)cc1 | 7.65
45 | CC(C)CNC(O)=S | 0.38
46 | Fc1ccc(NC(=S)c2ccc(Cl)cc2)cc1 | 10.4
47 | CN(C)c1ccc(O)cc1 | 10.2
48 | O=C(O)CCc1c[nH]c2ccccc12 | 4.87

Row | SMILES | pKa
49 | CCC(CC)C1(CC)C(=O)[N-]C(=S)NC1=O | 12.4
50 | CC1=CC(C)=Nc2ccc(C)cc2N1 | 5.8
51 | CONc1cc(=O)n(C)c(=O)n1C | 10.6
52 | CC(C)[C@H]([NH3+])C(=O)O | 2.32
53 | O=c1cc(CO)occ1O | 7.82
54 | O=C(O)c1ccc(Oc2ccccc2)cc1 | 4.52
55 | NCCc1ccc(O)c(O)c1 | 10.6
56 | O=C(O)[C@@H]1O[C@H](Oc2c[nH+]c3ccccc3c2)[C@@H](O)[C@H](O)[C@H]1O | 3
57 | O=C(NO)c1ccc([N+](=O)[O-])cc1 | 8.02
58 | C[C@H]([NH3+])C(=O)O | 2.42
59 | COCCSC(C)O (centres undefined) | 14.2
60 | CC[NH+](CC)Cc1cccc(F)c1O | 7.26
61 | FC(F)(F)c1ncnc2nc[nH]c12 | 7.35
62 | O=C([O-])CNS(=O)(=O)c1ccccc1 | 11.4
63 | O=C(O)CCc1ccco1 | 4.36
64 | Oc1cc(Cl)cc(Cl)c1 | 8.07
65 | CC[NH+](CC)Cc1cc(F)ccc1O | 8.23
66 | CCc1c(O)nn(-c2ccccc2)c1C | 12.3
67 | Cc1cc([N+](=O)[O-])ccc1NN=C(C#N)C#N | 5.5
68 | CC(=O)NC(Cc1c[nH]c[nH+]1)C(=O)O (centres undefined) | 2.94
69 | [O-]C(O)=C1c2ccccc2-c2ccccc21 | 9.61
70 | O=C(O)c1cc2cc(Cn3cc[nH+]c3)ccc2o1 | 2.38
71 | Cc1ccccc1-c1nnn[nH]1 | 4.09
72 | Cc1cccc(C(=O)O)c1I | 2.92

Same assay, conditions: basic group

Row | SMILES | pKa
73 | N/C(Cc1ccccc1)=N\O | 5.32
74 | NCCCCCc1ccccn1 | 10.4
75 | CCC(=O)C(CCN1CCCCC1)(c1ccccc1)c1ccccc1 | 8.86
76 | NCC[S-] | 10.7
77 | c1c[nH]c(P(c2[nH]cc[nH+]2)c2[nH]cc[nH+]2)n1 | 5.26
78 | C/C(=C\C(C)=N\c1ccccc1)Nc1ccccc1 | 7.22
79 | COCCN(C)C | 8.96
80 | Cc1cc(C)n(C)c(=O)n1 | 4
81 | Ic1cccc(C2NCCS2)c1 (centres undefined) | 4.93
82 | NC(=O)C[C@H](NC(=O)[C@@H](N)CS)C(=O)O (H-Cys-Asn-OH) | 7.05
83 | CC(N)C(=O)[O-] (centres undefined) | 9.83
84 | C1CN(CC[NH+]2CCOCC2)CCO1 | 3.63
